Assay results as given in the supplement of paper PMC11424490.

Assays:
Assay in all cases: combination cScore with adagrasib (Bliss gap around IC50) (%PoC); higher = stronger additive effect
NCI-H358 = test system: NCI-H358
Method in brief: (§1)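 Scores represent the average Bliss-independence gap, expected minus measured viability, in a field surrounding both monotherapy IC50s, with the top concentrations used when no IC50 was reached. Cells (NCI-H2122, NCI-H358, SW837) were seeded at 500 or 800 per well in 384-well plates, dosed in matrices at 24 h and grown for 72 h, with SW837 grown for 144 h. Viability was measured by CellTiter-Glo, normalised to vehicle wells and fitted with four-parameter curves.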

NCI-H2122 = test system: NCI-H2122
Method in brief: as §1

SW837 = test system: SW837
Method in brief: as §1

In the case of `CCN(CCCOc1ccc2c(Nc3cc(CC(=O)Nc4cccc(F)c4)[nH]n3)ncnc2c1)CCOP(=O)(O)O` [AZD-1152] + C=C(F)C(=O)N1CCN(c2nc(OC[C@@H]3CCCN3C)nc3c2CCN(c2cccc4cccc(Cl)c24)C3)C[C@@H]1CC#N [adagrasib], the “combination cScore with adagrasib” value (NCI-H358) is reported as 2.1, the “combination cScore with adagrasib” value (NCI-H2122) is reported as 12.7 and the “combination cScore with adagrasib” value (SW837) is reported as 4.03.
For `CCN1CCN(Cc2ccc(Nc3ncc(F)c(-c4cc(F)c5nc(C)n(C(C)C)c5c4)n3)nc2)CC1` [Abemaciclib] + C=C(F)C(=O)N1CCN(c2nc(OC[C@@H]3CCCN3C)nc3c2CCN(c2cccc4cccc(Cl)c24)C3)C[C@@H]1CC#N [adagrasib], the “combination cScore with adagrasib” value (NCI-H358) was 4.46, the “combination cScore with adagrasib” value (NCI-H2122) was 5.55 and the “combination cScore with adagrasib” value (SW837) was 12.5.
For `CN(C)C/C=C/C(=O)Nc1cc2c(Nc3ccc(F)c(Cl)c3)ncnc2cc1O[C@H]1CCOC1` [Afatinib] + C=C(F)C(=O)N1CCN(c2nc(OC[C@@H]3CCCN3C)nc3c2CCN(c2cccc4cccc(Cl)c24)C3)C[C@@H]1CC#N [adagrasib], the “combination cScore with adagrasib” value (NCI-H358) was 11.5, the “combination cScore with adagrasib” value (NCI-H2122) was 11.1 and the “combination cScore with adagrasib” value (SW837) was 21.2.
With `COc1cc2nc(C)nc(N[C@H](C)c3cc(N)cc(C(F)(F)F)c3)c2cc1O[C@H]1CCOC1` [BI-3406 (SOSi)] + C=C(F)C(=O)N1CCN(c2nc(OC[C@@H]3CCCN3C)nc3c2CCN(c2cccc4cccc(Cl)c24)C3)C[C@@H]1CC#N [adagrasib] the “combination cScore with adagrasib” value (NCI-H358) was 10.7, the “combination cScore with adagrasib” value (NCI-H2122) was 28 and the “combination cScore with adagrasib” value (SW837) was 19.4.
In the case of `Nc1cc(C(F)(F)F)c(-c2cc(N3CCOCC3)nc(N3CCOCC3)n2)cn1` [BKM120] + C=C(F)C(=O)N1CCN(c2nc(OC[C@@H]3CCCN3C)nc3c2CCN(c2cccc4cccc(Cl)c24)C3)C[C@@H]1CC#N [adagrasib], the “combination cScore with adagrasib” value (NCI-H358) is reported as 2.43, the “combination cScore with adagrasib” value (NCI-H2122) is reported as 12.9 and the “combination cScore with adagrasib” value (SW837) is reported as 9.24.
In the case of `Cc1nc(NC(=O)N2CCC[C@H]2C(N)=O)sc1-c1ccnc(C(C)(C)C(F)(F)F)c1` [BYL-719] + C=C(F)C(=O)N1CCN(c2nc(OC[C@@H]3CCCN3C)nc3c2CCN(c2cccc4cccc(Cl)c24)C3)C[C@@H]1CC#N [adagrasib], the “combination cScore with adagrasib” value (NCI-H358) is reported as 3.99, the “combination cScore with adagrasib” value (NCI-H2122) is reported as 14.3 and the “combination cScore with adagrasib” value (SW837) is reported as 17.
With `COC(=O)[C@]12CCC(C)(C)C[C@H]1[C@H]1C(=O)C=C3[C@@]4(C)C=C(C#N)C(=O)C(C)(C)[C@@H]4CC[C@@]3(C)[C@]1(C)CC2` [Bardoxolone methyl] + C=C(F)C(=O)N1CCN(c2nc(OC[C@@H]3CCCN3C)nc3c2CCN(c2cccc4cccc(Cl)c24)C3)C[C@@H]1CC#N [adagrasib] the “combination cScore with adagrasib” value (NCI-H358) was -4.25, the “combination cScore with adagrasib” value (NCI-H2122) was 5.12 and the “combination cScore with adagrasib” value (SW837) was 0.43.
`O=C(/C=C/c1cccc(S(=O)(=O)Nc2ccccc2)c1)NO` [Belinostat] + C=C(F)C(=O)N1CCN(c2nc(OC[C@@H]3CCCN3C)nc3c2CCN(c2cccc4cccc(Cl)c24)C3)C[C@@H]1CC#N [adagrasib] was tested, and the “combination cScore with adagrasib” value (NCI-H358) was -4.65, the “combination cScore with adagrasib” value (NCI-H2122) was 7.12 and the “combination cScore with adagrasib” value (SW837) was 5.49.
For `Cc1c(N)nc([C@H](CC(N)=O)NC[C@H](N)C(N)=O)nc1C(=O)N[C@H](C(=O)N[C@H](C)[C@@H](O)[C@H](C)C(=O)N[C@H](C(=O)NCCc1nc(-c2nc(C(=O)NCCC[S+](C)C)cs2)cs1)[C@@H](C)O)[C@@H](OC1OC(CO)C(O)C(O)C1OC1OC(CO)C(O)C(OC(N)=O)C1O)c1cnc[nH]1` (stereo not given in full) [Bleomycin] + C=C(F)C(=O)N1CCN(c2nc(OC[C@@H]3CCCN3C)nc3c2CCN(c2cccc4cccc(Cl)c24)C3)C[C@@H]1CC#N [adagrasib], the “combination cScore with adagrasib” value (NCI-H358) was -5.7, the “combination cScore with adagrasib” value (NCI-H2122) was 17.2 and the “combination cScore with adagrasib” value (SW837) was 7.34.
For `CC(C)C[C@H](NC(=O)[C@H](Cc1ccccc1)NC(=O)c1cnccn1)B(O)O` [Bortezomib] + C=C(F)C(=O)N1CCN(c2nc(OC[C@@H]3CCCN3C)nc3c2CCN(c2cccc4cccc(Cl)c24)C3)C[C@@H]1CC#N [adagrasib], the “combination cScore with adagrasib” value (NCI-H358) was 0, the “combination cScore with adagrasib” value (NCI-H2122) was 4.5 and the “combination cScore with adagrasib” value (SW837) was -1.68.
With `COc1cc(Nc2c(C#N)cnc3cc(OCCCN4CCN(C)CC4)c(OC)cc23)c(Cl)cc1Cl` [Bosutinib] + C=C(F)C(=O)N1CCN(c2nc(OC[C@@H]3CCCN3C)nc3c2CCN(c2cccc4cccc(Cl)c24)C3)C[C@@H]1CC#N [adagrasib] the “combination cScore with adagrasib” value (NCI-H358) was 1.58, the “combination cScore with adagrasib” value (NCI-H2122) was 14.5 and the “combination cScore with adagrasib” value (SW837) was 6.35.
In the case of `CC[C@H](Nc1ncnc2[nH]cnc12)c1nc2cccc(F)c2c(=O)n1-c1ccccc1` [Cal-101] + C=C(F)C(=O)N1CCN(c2nc(OC[C@@H]3CCCN3C)nc3c2CCN(c2cccc4cccc(Cl)c24)C3)C[C@@H]1CC#N [adagrasib], the “combination cScore with adagrasib” value (NCI-H358) is reported as 5.08, the “combination cScore with adagrasib” value (NCI-H2122) is reported as 14.1 and the “combination cScore with adagrasib” value (SW837) is reported as 1.53.
For `O=P1(N(CCCl)CCCl)NCCCO1` (stereo not given) [Cyclophosphamide] + C=C(F)C(=O)N1CCN(c2nc(OC[C@@H]3CCCN3C)nc3c2CCN(c2cccc4cccc(Cl)c24)C3)C[C@@H]1CC#N [adagrasib], the “combination cScore with adagrasib” value (NCI-H358) was -0.63, the “combination cScore with adagrasib” value (NCI-H2122) was -0.77 and the “combination cScore with adagrasib” value (SW837) was -0.5.
For `Cc1nc(Nc2ncc(C(=O)Nc3c(C)cccc3Cl)s2)cc(N2CCN(CCO)CC2)n1` [Dasatinib] + C=C(F)C(=O)N1CCN(c2nc(OC[C@@H]3CCCN3C)nc3c2CCN(c2cccc4cccc(Cl)c24)C3)C[C@@H]1CC#N [adagrasib], the “combination cScore with adagrasib” value (NCI-H358) was 8.94, the “combination cScore with adagrasib” value (NCI-H2122) was 42 and the “combination cScore with adagrasib” value (SW837) was 14.7.
For `COc1cccc2c1C(=O)c1c(O)c3c(c(O)c1C2=O)C[C@@](O)(C(C)=O)C[C@@H]3O[C@H]1C[C@H](N)[C@H](O)[C@H](C)O1` [Daunorubicin] + C=C(F)C(=O)N1CCN(c2nc(OC[C@@H]3CCCN3C)nc3c2CCN(c2cccc4cccc(Cl)c24)C3)C[C@@H]1CC#N [adagrasib], the “combination cScore with adagrasib” value (NCI-H358) was -0.64, the “combination cScore with adagrasib” value (NCI-H2122) was 4.15 and the “combination cScore with adagrasib” value (SW837) was 4.77.
For `C[C@H](Nc1ncnc2nc[nH]c12)c1cc2cccc(Cl)c2c(=O)n1-c1ccccc1` [Duvelisib] + C=C(F)C(=O)N1CCN(c2nc(OC[C@@H]3CCCN3C)nc3c2CCN(c2cccc4cccc(Cl)c24)C3)C[C@@H]1CC#N [adagrasib], the “combination cScore with adagrasib” value (NCI-H358) was 4.67, the “combination cScore with adagrasib” value (NCI-H2122) was 15.9 and the “combination cScore with adagrasib” value (SW837) was 12.8.
In the case of `C#Cc1cccc(Nc2ncnc3cc(OCCOC)c(OCCOC)cc23)c1` [Erlotinib] + C=C(F)C(=O)N1CCN(c2nc(OC[C@@H]3CCCN3C)nc3c2CCN(c2cccc4cccc(Cl)c24)C3)C[C@@H]1CC#N [adagrasib], the “combination cScore with adagrasib” value (NCI-H358) is reported as 10, the “combination cScore with adagrasib” value (NCI-H2122) is reported as 14.9 and the “combination cScore with adagrasib” value (SW837) is reported as 19.4.
With `COc1cc(Nc2ncc(F)c(Nc3ccc4c(n3)N(COP(=O)(O)O)C(=O)C(C)(C)O4)n2)cc(OC)c1OC` [Fostamatinib] + C=C(F)C(=O)N1CCN(c2nc(OC[C@@H]3CCCN3C)nc3c2CCN(c2cccc4cccc(Cl)c24)C3)C[C@@H]1CC#N [adagrasib] the “combination cScore with adagrasib” value (NCI-H358) was 3.37, the “combination cScore with adagrasib” value (NCI-H2122) was 17.4 and the “combination cScore with adagrasib” value (SW837) was 7.91.
In the case of `C[C@H](Nc1ccc2c(c1)OCCn1cc(N3C(=O)OC[C@H]3C(F)F)nc1-2)C(N)=O` [GDC-0077] + C=C(F)C(=O)N1CCN(c2nc(OC[C@@H]3CCCN3C)nc3c2CCN(c2cccc4cccc(Cl)c24)C3)C[C@@H]1CC#N [adagrasib], the “combination cScore with adagrasib” value (NCI-H358) is reported as 5.51, the “combination cScore with adagrasib” value (NCI-H2122) is reported as 22.2 and the “combination cScore with adagrasib” value (SW837) is reported as 5.13.
With `CCCc1cc(C)[nH]c(=O)c1CNC(=O)c1cc(-c2ccnc(N3CCN(C)CC3)c2)cc2c1cnn2C(C)C` [GSK343] + C=C(F)C(=O)N1CCN(c2nc(OC[C@@H]3CCCN3C)nc3c2CCN(c2cccc4cccc(Cl)c24)C3)C[C@@H]1CC#N [adagrasib] the “combination cScore with adagrasib” value (NCI-H358) was 4.64, the “combination cScore with adagrasib” value (NCI-H2122) was 15.8 and the “combination cScore with adagrasib” value (SW837) was -0.82.
In the case of `COc1cc2ncnc(Nc3ccc(F)c(Cl)c3)c2cc1OCCCN1CCOCC1` [Gefitinib] + C=C(F)C(=O)N1CCN(c2nc(OC[C@@H]3CCCN3C)nc3c2CCN(c2cccc4cccc(Cl)c24)C3)C[C@@H]1CC#N [adagrasib], the “combination cScore with adagrasib” value (NCI-H358) is reported as 12.5, the “combination cScore with adagrasib” value (NCI-H2122) is reported as 15.8 and the “combination cScore with adagrasib” value (SW837) is reported as 23.8.
`CCS(=O)(=O)Nc1ccc2c(c1)/C(=C(/Nc1ccc(CN3CCCCC3)cc1)c1ccccc1)C(=O)N2` [Hesperadin] + C=C(F)C(=O)N1CCN(c2nc(OC[C@@H]3CCCN3C)nc3c2CCN(c2cccc4cccc(Cl)c24)C3)C[C@@H]1CC#N [adagrasib] was tested, and the “combination cScore with adagrasib” value (NCI-H358) was 0.47, the “combination cScore with adagrasib” value (NCI-H2122) was 8.14 and the “combination cScore with adagrasib” value (SW837) was 0.27.
In the case of `O=C(O)CNC(=O)c1c(O)c2ccccc2n(Cc2ccccc2)c1=O` [IOX2] + C=C(F)C(=O)N1CCN(c2nc(OC[C@@H]3CCCN3C)nc3c2CCN(c2cccc4cccc(Cl)c24)C3)C[C@@H]1CC#N [adagrasib], the “combination cScore with adagrasib” value (NCI-H358) is reported as 0.22, the “combination cScore with adagrasib” value (NCI-H2122) is reported as 25.2 and the “combination cScore with adagrasib” value (SW837) is reported as 13.4.
`C[C@H](NC(=O)c1c(N)nn2cccnc12)c1cc2cccc(C#Cc3cnn(C)c3)c2c(=O)n1-c1ccccc1` [IPI-549] + C=C(F)C(=O)N1CCN(c2nc(OC[C@@H]3CCCN3C)nc3c2CCN(c2cccc4cccc(Cl)c24)C3)C[C@@H]1CC#N [adagrasib] was tested, and the “combination cScore with adagrasib” value (NCI-H358) was -0.57, the “combination cScore with adagrasib” value (NCI-H2122) was 13 and the “combination cScore with adagrasib” value (SW837) was 5.62.
In the case of `C=CC(=O)N1CCC[C@@H](n2nc(-c3ccc(Oc4ccccc4)cc3)c3c(N)ncnc32)C1` [Ibrutinib] + C=C(F)C(=O)N1CCN(c2nc(OC[C@@H]3CCCN3C)nc3c2CCN(c2cccc4cccc(Cl)c24)C3)C[C@@H]1CC#N [adagrasib], the “combination cScore with adagrasib” value (NCI-H358) is reported as 9.97, the “combination cScore with adagrasib” value (NCI-H2122) is reported as 26.9 and the “combination cScore with adagrasib” value (SW837) is reported as 2.16.
